{"source": "patent EP1501797B1", "about": "“3-(SUBSTITUTED AMINO)-1H-INDOLE-2-CARBOXYLIC ACID ESTER AND 3-(SUBSTITUTED AMINO)-BENZO[B]THIOPHENE-2-CARBOXYLIC ACID ESTER DERIVATIVES AS INTERLEUKIN-4 GENE EXPRESSION INHIBITORS” (Aventis Pharmaceuticals Inc., priority 2002, dated 2003)", "key": {"[1]": {"test_system": "eosinophil", "test": "OVA-induced lung inflammation in Brown Norway rats, eosinophil influx into bronchoalveolar fluid", "assay_type": "in vivo", "conditions": "Rattus norvegicus, ip, intraperitoneal injection, FIG. 2, read-out: ED50, inhibition of the influx of eosinophil", "procedure": "Rat model was very similar to the mouse models described earlier. Briefly, the lung inflammatory model described by Haczku et al. was used with minor modifications (Haczku A., et al., Immunology, (1996), 88, 247-251). Male Brown Norway rats, weighing 160-200 grams were sensitized with intraperitoneal injection of 1ml of a suspension containing ovalbumin (1 mg) and Al(OH)3 (100 mg) on days 1, 2 and 3. Three weeks later, the rats were treated with vehicle or drugs via intraperitoneal injections. One hour later, the rats were challenged with ovalbumin inhalation (1% solution, 10 mg/ml in sterilized saline) for 20 minutes in a 10 liter Plexiglas chamber which was connected to a DeVilbiss (Ultra-NEB®99) nebulizer with a carrier air flow of 1 liter/minute.\nResults of dose response studies of 3-(4-pyridinylamino)-1H-indole-2-carboxylic acid on eosinophil influx into the bronchoalveolar fluid of ovalbumin sensitized and challenged Brown Norway rats are depicted as bar graphs in FIG. 2. Single dose of cyclosporin A (CsA) and dexamethasone (Dex) were also included as reference standards."}, "[2]": {"test_system": "IL-4", "test": "Human primary Th2 cells, anti-CD3/anti-CD28 activated, IL-4 ELISA", "assay_type": "cell-based", "procedure": "Briefly, CD4^+CD45RA^+ T cells, isolated from donor peripheral blood mononuclear cells of healthy donors, are educated in the presence of anti-CD3/CD28 antibodies and various growth factors to obtain either a Thl-like or Th2-like phenotypes as determined by the known cytokine profiles of these two cell types.\nPeripheral blood mononuclear cells (PBMC) are prepared from human blood by Ficoll-Hypacque (Pharmacia). The cells are washed two times in Hanks balanced salt solution (HBSS) and counted.\nNaive T cells (CD4^+/CD45RA ) are prepared by negative selection method using following antibodies and Dynabeads: anti-CD8, anti-HLA-DR, (where HLA means human leucocyte antigen) anti-CD14, anti-CD16, anti-CD19, anti-CD45RO antibodies (all from R&D Systems, 1-2 µg/ml) are added to the cells, and the cells are kept on ice for 30 min. The cells are washed two times in HBSS, and goat anti- mouse Ig-beads, (bead:target ratio, 5:1) are added. The cells and beads are slowly rotated at 4°C for 20 min. (following the protocol supplied from Dynal). The supernatant is removed and fresh goat anti-mouse Ig-beads are added to the supernatant, which is slowly rotated at 4°C for 20 min. The cells are counted and phenotypically characterized by flow cytometric analysis.\nCD4^+/CD45RA^+ cells at a density of 10^6/ml in RPMI, is prepared and added to RPMI medium containing 10% Hyclone serum/ glutamine and 1-2 µg/ml anti-CD28 Ab. The cells are split in two aliquots. For Th1 cells: anti-IL-4 Ab (1-2 µg/ml), IFN-γ (1 µg/ml, or 5000 units/ml) are added to the wells. For Th2 cells: IL-4 (100-200 ng/ml), anti-IFN-γ neutralizing Ab (1-2 µg/ml), anti-IL-12 neutralizing Ab (1-2 µg/ml) are added into the wells. […] The cells are transferred to fresh wells and grown in 200 units/ml IL-2 for 2 weeks by feeding them every other day with IL-2 containing medium and splitting the cultures 1:2 or 1:3 as needed. The degree of polarization is determined by intracellular staining of cells with anti-IFN-γ and anti-IL-4 antibodies from Pharmingen, and using flow cytometry from Becton Dickinson (BD), according to manufacturers description. The cells are stimulated with PHA and alloantigens at day 14 and 28 as described below. Eight days after the second allostimulation the cells can be used for compound screening or frozen for future use. For compound testing, large quantities of Th1 and Th2 cells derived from a given donor (NYTh1 and NYTh2) were expanded and frozen as aliquots in liquid nitrogen. The cells are thawed and cultured as and when needed. The thawed cells are stimulated with alloantigen/PHA combination. The cells are used for compound screening after 8-10 days in culture.\nRe-stimulation by allogeneic cells: Human PBMCs, to be used as alloantigens, are isolated from freshly drawn blood by Ficoll separation. […] Cells are counted and diluted to a final concentration of 2 x 10^6/ml in medium containing 10 µg/ml PHA and 200 units/ml IL-2.\nNinetysix well Falcon tissue culture plates (Fisher Scientific) are coated with 100 microliters per well of 10 µg/ml anti-CD3 (PharMingen) antibody in phosphate buffered saline (PBS) and stored at 4°C one day before the experiment.\nOn the day of assay, anti-CD3 antibody coated plates are washed with PBS once to remove all soluble anti-CD3 antibody. […] All compounds and controls are assayed in triplicates."}}}
{"compound": "O=C(O)c1[nH]c2ccccc2c1Nc1ccncc1", "note": "[Example 28, 3-(4-Pyridinylamino)-1H-indole-2-carboxylic acid]", "values": [{"measurement": "ED50", "setting": "[1]", "value": 10.1, "unit": "mg/kg"}, {"measurement": "IL-4 PROTEIN Exp #2", "setting": "[2]; 10 µM, 18 hrs, ELISA of culture supernatants, stimulated control 625.0+/- 23", "value": "286.2 ± 19", "unit": "pg/mL"}, {"measurement": "activity at 0.01 µM", "setting": "[2]; Homo sapiens, 0.01 µM, 48 hr, read-out: IL-4 (% control) mean", "value": 102, "unit": "%"}, {"measurement": "activity at 0.03 µM", "setting": "[2]; Homo sapiens, 0.03 µM, 48 hr, read-out: IL-4 (% control) mean", "value": 65.3, "unit": "%"}, {"measurement": "activity at 0.1 µM", "setting": "[2]; Homo sapiens, 0.1 µM, 48 hr, read-out: IL-4 (% control) mean", "value": 59.8, "unit": "%"}, {"measurement": "activity at 0.3 µM", "setting": "[2]; Homo sapiens, 0.3 µM, 48 hr, read-out: IL-4 (% control) mean", "value": 45, "unit": "%"}, {"measurement": "activity at 1 µM", "setting": "[2]; Homo sapiens, 1 µM, 48 hr, read-out: IL-4 (% control) mean", "value": 42.5, "unit": "%"}, {"measurement": "activity at 3 µM", "setting": "[2]; Homo sapiens, 3 µM, 48 hr, read-out: IL-4 (% control) mean", "value": 36.4, "unit": "%"}, {"measurement": "activity at 10 µM", "setting": "[2]; Homo sapiens, 10 µM, 48 hr, read-out: IL-4 (% control) mean", "value": 30.8, "unit": "%"}, {"measurement": "IC50", "setting": "[2]; Human primary Th2 cells, combined data from 10 different experiments", "value": 240, "unit": "nM"}, {"measurement": "IFN-γ/ IL-4 Ratio", "setting": "[2]; Human primary Th2 cells, ratio of IC50", "value": "> 41"}]}
